Experimental data published in patent EP0401715B1, “Aminoketone compounds” (priority 1989, dated 1990).
pIC50: −log10 of the molar value. Structures can show the parent of a compound that is named as a salt. Where two headings read alike, the source gives them in different places.

Target: T1, cholinesterase (Rattus norvegicus, UniProt P37136)
T1 construct: The S₁ fraction of a cerebral cortex homogenate from male Wistar rats was used as the cholinesterase source; from tissue; host or cells: S1 fraction of cerebral cortex homogenate, male Wistar rats
Experiment: Anticholinesterase activity using (acetyl-[³H])-acetylcholine as substrate
Format: biochemical, male Wistar rats
Procedure: The anticholinesterase activity of the compound of the invention was evaluated using (acetyl-[³H])-acetylcholine. The S₁ fraction of a cerebral cortex homogenate from male Wistar rats was used as the cholinesterase source, (acetyl-[³H])-acetylcholine as the substrate and the test compound of the invention as the test substance. The incubation was carried out for 30 minutes and after the reaction was terminated, the system was shaken with a toluene scintillator to thereby transfer [³H]-acetic acid into the toluene layer. The radioactivity in the toluene layer was then measured with a liquid scintillation counter to estimate the anticholinesterase activity of the test compound.

T1 sequence (P37136 32-614): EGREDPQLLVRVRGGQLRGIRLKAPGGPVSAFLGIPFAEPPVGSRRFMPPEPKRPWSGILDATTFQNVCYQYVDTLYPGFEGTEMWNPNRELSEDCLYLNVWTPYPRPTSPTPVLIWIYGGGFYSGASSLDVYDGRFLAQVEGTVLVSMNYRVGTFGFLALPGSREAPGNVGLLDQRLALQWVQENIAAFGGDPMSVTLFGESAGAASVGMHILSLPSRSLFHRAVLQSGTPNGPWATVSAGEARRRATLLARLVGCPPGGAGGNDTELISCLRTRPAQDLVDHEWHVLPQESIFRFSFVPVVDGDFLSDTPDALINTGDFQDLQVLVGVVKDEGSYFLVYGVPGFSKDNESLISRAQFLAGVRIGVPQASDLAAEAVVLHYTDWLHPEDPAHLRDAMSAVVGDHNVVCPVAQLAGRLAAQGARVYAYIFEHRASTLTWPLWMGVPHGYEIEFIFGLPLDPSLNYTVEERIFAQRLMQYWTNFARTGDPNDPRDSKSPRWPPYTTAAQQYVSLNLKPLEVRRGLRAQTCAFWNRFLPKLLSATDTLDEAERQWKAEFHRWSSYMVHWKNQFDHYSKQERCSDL

| Compound | pIC50 | pIC50 (S₁ fraction of a cerebral cortex homogenate from male Wistar rats as cholinesterase source, incubation 30 minutes, read-out: Anticholinesterase activity, IC₅₀) |
| --- | --- | --- |
| CCN(CCCCCC(=O)c1ccc(N2CCCC2)cc1)Cc1ccccc1 [Example 4-2, N-Ethyl-N-(phenylmethyl)-N-[6-(4-pyrrolidinophenyl)-6-oxohexyl]amine fumarate] | 6.51 |  |
| CCN(CCCCCC(=O)c1ccc(N2CCCC2)cc1)Cc1ccccc1OC [Example 4-3, N-Ethyl-N-[(2-methoxyphenyl)methyl]-N-[6-(4-pyrrolidinophenyl)-6-oxohexyl]amine fumarate] |  | 7.30 |
